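1) Cells in 96-well plates. 2) Compound, 48 h, 5 concentrations. 3) Linear interpolation between surrounding doses. 4) Unreached endpoint = highest concentration. GI50 is the concentration that inhibits growth by half.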 The source made the active and inactive calls. Cut-off read from the data, not from the text of the source: active = GI50 up to about 1.1 µM and inactive = higher.
How the values were obtained:
Test in all cases: growth of human tumour cells (NCI), 48 h
786-0 = test system: 786-0
A498 = test system: A498
A549 = test system: A549
ACHN = test system: ACHN
BT-549 = test system: BT-549
CAKI-1 = test system: CAKI-1
CCRF-CEM = test system: CCRF-CEM
COLO 205 = test system: COLO 205
DU-145 = test system: DU-145
EKVX = test system: EKVX
HCC 2998 = test system: HCC 2998
HCT-116 = test system: HCT-116
HCT-15 = test system: HCT-15
HL-60 = test system: HL-60
HOP-62 = test system: HOP-62
HOP-92 = test system: HOP-92
HT-29 = test system: HT-29
Hs-578T = test system: Hs-578T
IGROV-1 = test system: IGROV-1
K562 = test system: K562
KM12 = test system: KM12
LOX IMVI = test system: LOX IMVI
M14 = test system: M14
MCF7 = test system: MCF7
MDA-MB-231 = test system: MDA-MB-231
MDA-MB-435 = test system: MDA-MB-435
MDA-N = test system: MDA-N
MOLT-4 = test system: MOLT-4
Malme-3M = test system: Malme-3M
NCI-H226 = test system: NCI-H226
NCI-H23 = test system: NCI-H23
NCI-H460 = test system: NCI-H460
NCI-H522 = test system: NCI-H522
NCI/ADR-RES = test system: NCI/ADR-RES
OVCAR-3 = test system: OVCAR-3
OVCAR-4 = test system: OVCAR-4
OVCAR-5 = test system: OVCAR-5
OVCAR-8 = test system: OVCAR-8
PC-3 = test system: PC-3
RPMI-8226 = test system: RPMI-8226
RXF 393 = test system: RXF 393
SF-268 = test system: SF-268
SF-295 = test system: SF-295
SF-539 = test system: SF-539
SK-MEL-28 = test system: SK-MEL-28
SK-MEL-2 = test system: SK-MEL-2
SK-MEL-5 = test system: SK-MEL-5
SK-OV-3 = test system: SK-OV-3
SN12C = test system: SN12C
SNB-19 = test system: SNB-19
SNB-75 = test system: SNB-75
SR = test system: SR
SW-620 = test system: SW-620
T47D = test system: T47D
TK-10 = test system: TK-10
U-251 = test system: U-251
UACC-257 = test system: UACC-257
UACC-62 = test system: UACC-62
UO-31 = test system: UO-31

For `CSC(=N/N=C(\C)c1ccc(S(=O)(=O)N(C)c2ccccc2)cc1)SC`, the GI50 (786-0) was > 64.9 µM (inactive), the GI50 (A498) was > 63.8 µM (inactive) and the GI50 (A549) was > 100 µM (inactive). For the same molecule, the GI50 (ACHN) was > 70 µM (inactive), the GI50 (BT-549) was > 50.8 µM (inactive) and the GI50 (CAKI-1) was > 64.9 µM (inactive). For the same molecule, the GI50 (CCRF-CEM) was 15.6 µM (inactive), the GI50 (COLO 205) was > 67.1 µM (inactive) and the GI50 (DU-145) was > 66.4 µM (inactive). The GI50 (EKVX) was > 65 µM (inactive), the GI50 (HCC 2998) was > 100 µM (inactive) and the GI50 (HCT-116) was > 64.7 µM (inactive). The GI50 (HCT-15) was greater than 66.7 µM, the GI50 (HL-60) was > 43.5 µM (inactive) and the GI50 (HOP-62) was > 62.5 µM (inactive). For the same molecule, the GI50 (HOP-92) was > 43.8 µM (inactive), the GI50 (HT-29) was > 84.9 µM (inactive) and the GI50 (Hs-578T) was > 59.4 µM (inactive). The GI50 (IGROV-1) was > 61.4 µM (inactive), the GI50 (K562) was > 53.1 µM (inactive) and the GI50 (KM12) was > 64.4 µM (inactive). For the same molecule, the GI50 (LOX IMVI) was > 69.7 µM (inactive), the GI50 (M14) was > 63.1 µM (inactive) and the GI50 (MCF7) was 31.1 µM (inactive). The GI50 (MDA-MB-231) was > 61.8 µM (inactive), the GI50 (MDA-MB-435) was > 62.8 µM (inactive) and the GI50 (MDA-N) was > 66.2 µM (inactive). For the same molecule, the GI50 (MOLT-4) was 17.2 µM (inactive), the GI50 (Malme-3M) was > 100 µM (inactive) and the GI50 (NCI-H226) was > 100 µM (inactive). For the same molecule, the GI50 (NCI-H23) was > 63.1 µM (inactive), the GI50 (NCI-H460) was > 100 µM (inactive) and the GI50 (NCI-H522) was > 100 µM (inactive). For the same molecule, the GI50 (NCI/ADR-RES) was > 100 µM (inactive), the GI50 (OVCAR-3) was > 63.4 µM (inactive) and the GI50 (OVCAR-4) was > 58.6 µM (inactive). For the same molecule, the GI50 (OVCAR-5) was > 66.5 µM (inactive), the GI50 (OVCAR-8) was > 100 µM (inactive) and the GI50 (PC-3) was > 62.7 µM (inactive). The GI50 (RPMI-8226) was 13.1 µM (inactive), the GI50 (RXF 393) was 27.7 µM (inactive) and the GI50 (SF-268) was > 66.5 µM (inactive). For the same molecule, the GI50 (SF-295) was > 64.7 µM (inactive), the GI50 (SF-539) was > 52.4 µM (inactive) and the GI50 (SK-MEL-28) was > 67.9 µM (inactive). For the same molecule, the GI50 (SK-MEL-2) was > 62.2 µM (inactive), the GI50 (SK-MEL-5) was > 100 µM (inactive) and the GI50 (SK-OV-3) was > 66.5 µM (inactive). For the same molecule, the GI50 (SN12C) was > 66.2 µM (inactive), the GI50 (SNB-19) was > 66.2 µM (inactive) and the GI50 (SNB-75) was > 63.1 µM (inactive). For the same molecule, the GI50 (SR) was > 59.6 µM (inactive), the GI50 (SW-620) was > 66.4 µM (inactive) and the GI50 (T47D) was > 60.7 µM (inactive). For the same molecule, the GI50 (TK-10) was > 100 µM (inactive), the GI50 (U-251) was > 51.9 µM (inactive) and the GI50 (UACC-257) was > 100 µM (inactive). For the same molecule, the GI50 (UACC-62) was > 65.8 µM (inactive) and the GI50 (UO-31) was > 61.5 µM (inactive).

For `COC1=C(OC)C23CCc4ccc(OC)c(O)c4C2(CCN3)CC1=O` (configuration not stated), the GI50 (786-0) was > 100 µM (inactive), the GI50 (A498) was > 100 µM (inactive) and the GI50 (A549) was > 100 µM (inactive). For the same molecule, the GI50 (ACHN) was > 100 µM (inactive), the GI50 (BT-549) was > 100 µM (inactive) and the GI50 (CAKI-1) was > 100 µM (inactive). The GI50 (CCRF-CEM) was > 100 µM (inactive), the GI50 (COLO 205) was > 100 µM (inactive) and the GI50 (DU-145) was > 100 µM (inactive). The GI50 (EKVX) was > 100 µM (inactive), the GI50 (HCC 2998) was > 100 µM (inactive) and the GI50 (HCT-116) was > 100 µM (inactive). The GI50 (HCT-15) was greater than 100 µM, the GI50 (HL-60) was > 100 µM (inactive) and the GI50 (HOP-62) was > 100 µM (inactive). The GI50 (HOP-92) was > 100 µM (inactive), the GI50 (HT-29) was > 100 µM (inactive) and the GI50 (Hs-578T) was > 100 µM (inactive). For the same molecule, the GI50 (IGROV-1) was > 100 µM (inactive), the GI50 (K562) was > 100 µM (inactive) and the GI50 (KM12) was > 100 µM (inactive). The GI50 (LOX IMVI) was > 100 µM (inactive), the GI50 (M14) was > 100 µM (inactive) and the GI50 (MCF7) was > 100 µM (inactive). The GI50 (MDA-MB-231) was > 100 µM (inactive), the GI50 (MDA-MB-435) was > 100 µM (inactive) and the GI50 (MDA-N) was > 100 µM (inactive). The GI50 (MOLT-4) was > 100 µM (inactive), the GI50 (Malme-3M) was > 100 µM (inactive) and the GI50 (NCI-H226) was > 100 µM (inactive). For the same molecule, the GI50 (NCI-H23) was > 100 µM (inactive), the GI50 (NCI-H460) was > 100 µM (inactive) and the GI50 (NCI-H522) was > 100 µM (inactive). The GI50 (NCI/ADR-RES) was > 100 µM (inactive), the GI50 (OVCAR-3) was > 100 µM (inactive) and the GI50 (OVCAR-4) was > 100 µM (inactive). The GI50 (OVCAR-5) was > 100 µM (inactive), the GI50 (OVCAR-8) was > 100 µM (inactive) and the GI50 (PC-3) was > 100 µM (inactive). For the same molecule, the GI50 (RPMI-8226) was > 100 µM (inactive), the GI50 (RXF 393) was > 100 µM (inactive) and the GI50 (SF-268) was > 100 µM (inactive). For the same molecule, the GI50 (SF-295) was > 100 µM (inactive), the GI50 (SF-539) was > 100 µM (inactive) and the GI50 (SK-MEL-28) was > 100 µM (inactive). The GI50 (SK-MEL-2) was > 100 µM (inactive), the GI50 (SK-MEL-5) was > 100 µM (inactive) and the GI50 (SK-OV-3) was > 100 µM (inactive). The GI50 (SN12C) was > 100 µM (inactive), the GI50 (SNB-19) was > 100 µM (inactive) and the GI50 (SNB-75) was > 100 µM (inactive). For the same molecule, the GI50 (SR) was > 100 µM (inactive), the GI50 (SW-620) was > 100 µM (inactive) and the GI50 (T47D) was > 100 µM (inactive). For the same molecule, the GI50 (TK-10) was > 100 µM (inactive), the GI50 (U-251) was > 100 µM (inactive) and the GI50 (UACC-257) was > 100 µM (inactive). The GI50 (UACC-62) was > 100 µM (inactive).

From ChEMBL document CHEMBL1201862, “PubChem BioAssay data set” (2004)
